Data on 4 compounds can be found in patent publication US20110306546A1, “COMPOSITIONS FOR INCREASING HAIR GROWTH AND DECREASING HAIR LOSS” (ALVI ARMANI GENOMICS INC., priority 2010, published 2011).

This assay relates to Hair follicles (HF). Briefly: Hair follicle (HF) explant growth assay. In kind it is cell-based, human. To be noted: HF elongation after 7-8 days; 20 ng/ml of each growth factor, hypoxanthine 2 μM; mean of 6-8 independent experiments. As for the experimental part: Hair follicles (HF) were extracted from the occipital area of 6-8 individuals with hair loss. The HFs were processed to equivalent lengths and cultured in William's E medium supplemented with 100 units/ml penicillin G, 100 μg/ml streptomycin, 0.25 μg/ml amphotericin B, […], 1 ng/ml hydrocortisone; basic medium or control medium or basic medium supplemented with 20 ng/ml of each of IGF-1, FGF-2, PDGF, Wnt-3A (Wnt), Noggin (Nog), Ephrin A3 (Eph), SHH and BMP-6 as well as hypoxanthine (Hyx) at 2 μM final concentration. The “GF10 cocktail” or “GF10” includes all nine growth factors and hypoxanthine while the “GF7 cocktail” or “GF7” contains six growth factors (all growth factors of GF10 except for FGF-10, Eph and SHH) and hypoxanthine. Growth promotion was measured as elongation of the HF at the end of 7-8 days. All growth factors and hypoxanthine promoted growth individually and in combination (FIG. 1 and Table 1).

As to `O=c1[nH]cnc2nc[nH]c12` [Hypx, hypoxanthine], the “Increase in growth (% control) Mean” value is on record as 104.1618 % control.

Turning to PDGF: platelet-derived growth factor-AA, the “Increase in growth (% control) Mean” value was 69.56 % control. With FGF2: fibroblast growth factor-2, the “Increase in growth (% control) Mean” value worked out at 146.474 % control.

For “IGF1: insulin-like growth factors-1, cellular growth factor”, the “Increase in growth (% control) Mean” value is 39.31 % control.
